Patent publication US9718809B2, “Bisarylsulfonamides useful in the treatment of inflammation and cancer” (Kancera AB, priority 2011, dated 2017)
Structures can show the parent of a compound that is named as a salt.

Tested on: NUGC-3 cells
Assay: Inhibition of cancer cell proliferation, total cellular protein (Sulphorhodamine B), NUGC-3
Details: Homo sapiens, 72 h, read-out: IC50 based on quantitation of total cellular protein after treatment
Experimental: (§1) To assess the antiproliferative response elicited by the compounds of the present invention in different tumour cell lines, total cellular protein in samples was quantified using the Sulphorhodamine B kit, TOX6, (Sigma-Aldrich). The protocol is based on quantitation of total cellular protein after indicated treatments and incubation times using the Sulphorhodamine B kit, TOX6, (Sigma-Aldrich).
(§2) Briefly, after protein precipitation using TCA according to the manufacturer's instructions, the sulphorhodamine dye (80 μL/well) was added to the air-dried wells. After 20 min incubation at room temperature, the dye was discarded and the samples were gently rinsed with 1% HOAc until clear. After air drying, bound dye was solubilised in 200 μL 10 mM Tris base, and the absorbance of dye was measured at 565 nm. To quantify growth, samples were collected also at t=0 h, and the resulting absorbance was set to 100%.
(§3) For experiments studying the effect of the herein described compounds per se, i.e. without combination treatment with cisplatin, the above protocol was applied with the following modifications. See Table II for details for each specific cell line. Briefly, cells were plated at a density of 6,000 cells/well 96-well Corning Costar tissue culture plates (CLS3596, Sigma-Aldrich) in assay medium and allowed to attach over night at 37° C., 5% CO2. Day 2 the compounds were diluted ½ in dose response curve mode in 100% DMSO, required volume was transferred to assay medium to a maximal DMSO concentration of 0.1%. The diluted compounds were added to the cells with a starting dose response concentration of 100 μM. All compounds were tested in duplicate plates.
as §2, with “After” for “Briefly, after”, “sulforhodamine B” for “sulphorhodamine”, “(50” for “(80”, “100” for “200”, “530 nm and a background absorbance (subtract from the measurement at 530 nm) at 690” for “565”, “h.” for “h, and the resulting absorbance was set to 100%.”
In the case of `COC(=O)c1ccc(NS(=O)(=O)c2cc(-c3cc(F)ccc3F)c(Cl)s2)cc1O` [Example 45, Methyl 4-({[5-chloro-4-(2,5-difluorophenyl)-2-thienyl]sulfonyl}amino)-2-hydroxybenzoate], the IC50 is reported as 22.5 µM. `COC(=O)c1ccc(NS(=O)(=O)c2cccc(-c3cc(F)ccc3O)c2)cc1O` [Example 134, Methyl 4-{[(5′-fluoro-2′-hydroxybiphenyl-3-yl)sulfonyl]amino}-2-hydroxybenzoate] gave an IC50 of 13 µM. In the case of `CCC(COC)OC(=O)c1ccc(NS(=O)(=O)c2cc(Cl)cc(Cl)c2)cc1O` (centres unmarked) [Example 189, 1-(Methoxymethyl)propyl 4-{[(3,5-dichlorophenyl)sulfonyl]amino}-2-hydroxybenzoate], the IC50 is reported as 16.4 µM. In the case of `O=C(OCCOc1ccccc1)c1ccc(NS(=O)(=O)c2cccc(-c3cc(F)ccc3O)c2)cc1O` [Example 203, 2-Phenoxyethyl 4-{[(5′-fluoro-2′-hydroxybiphenyl-3-yl)sulfonyl]amino}-2-hydroxybenzoate], the IC50 is reported as 6.8 µM.

Tested on: PANC-1 cells
Assay: Inhibition of cancer cell proliferation, total cellular protein (Sulphorhodamine B), PANC-1
Details: Homo sapiens, 72 h, read-out: IC50 based on quantitation of total cellular protein after treatment
Experimental: as §1, §2, §3
as §2, with “After” for “Briefly, after”, “sulforhodamine B” for “sulphorhodamine”, “(50” for “(80”, “100” for “200”, “530 nm and a background absorbance (subtract from the measurement at 530 nm) at 690” for “565”, “h.” for “h, and the resulting absorbance was set to 100%.”
For `CC(C)OC(=O)c1ccc(NS(=O)(=O)c2cc(Cl)c(Cl)s2)cc1O` [Example 68, Isopropyl 4-{[(4,5-dichloro-2-thienyl)sulfonyl]amino}-2-hydroxybenzoate], the IC50 was 15.6 µM. With `O=C(OCCCN1CCOCC1)c1ccc(NS(=O)(=O)c2cc(-c3ccc4c(c3)CCO4)c(Cl)s2)cc1O` [Example 163, 3-Morpholin-4-ylpropyl 4-({[5-chloro-4-(2,3-dihydro-1-benzofuran-5-yl)-2-thienyl]sulfonyl}amino)-2-hydroxybenzoate trifluoroacetate] the IC50 was 30.2 µM. Work on `O=C(OCCCN1CCOCC1)c1ccc(NS(=O)(=O)c2c(Cl)sc(Cl)c2Br)cc1O` [Example 199, 3-Morpholin-4-ylpropyl 4-{[(4-bromo-2,5-dichlorothiophen-3-yl)sulfonyl]amino}-2-hydroxybenzoate trifluoroacetate] yielded an IC50 of 20.6 µM.

Tested on: SW480 cells
Assay: Inhibition of cancer cell proliferation, total cellular protein (Sulphorhodamine B), SW480
Details: Homo sapiens, 72 h, read-out: IC50 based on quantitation of total cellular protein after treatment
Experimental: as §1, §2, §3
After protein precipitation using TCA according to the manufacturer's instructions, the sulforhodamine B dye (50 μL/well) was added to the air-dried wells. […] After air drying, bound dye was solubilised in 100 μL 10 mM Tris base, and the absorbance of dye was measured at 530 nm and a background absorbance (subtract from the measurement at 530 nm) at 690 nm. To quantify growth, samples were collected also at t=0 h.
In the case of `COCCOC(=O)c1ccc(NS(=O)(=O)c2cccc(-c3cc(F)ccc3F)c2)cc1O` [Example 172, 2-Methoxyethyl 4-{[(2′,5′-difluorobiphenyl-3-yl)sulfonyl]amino}-2-hydroxybenzoate], the IC50 is reported as 15.9 µM. `COCC(C)OC(=O)c1ccc(NS(=O)(=O)c2cc(Cl)cc(Cl)c2)cc1O` (centres unmarked) [Example 192, 2-Methoxy-1-methylethyl 4-{[(3,5-dichlorophenyl)sulfonyl]amino}-2-hydroxybenzoate] showed an IC50 of 22.3 µM. `CCC(COC)OC(=O)c1ccc(NS(=O)(=O)c2cc(Cl)c(Cl)s2)cc1O` (centres unmarked) [Example 195, 1-(Methoxymethyl)propyl 4-{[(4,5-dichlorothiophen-2-yl)sulfonyl]amino}-2-hydroxybenzoate] showed an IC50 of 20.4 µM.

Tested on: not listed separately
Assay: Cell toxicity, CellTiter-Blue Cell Viability Assay
Details: human, MIA PaCa-2 pancreatic carcinoma cells, MIA PaCa-2 cells, 72 h culture, read-out: IC50 based on cell toxicity
Experimental: The CellTiter-Blue® Cell Viability Assay provides a homogeneous, fluorometric method for estimating the number of viable cells present in multi-well plates. It uses the indicator dye resazurin to measure the metabolic capacity of cells. Viable cells retain the ability to reduce resazurin into resorufin, which is highly fluorescent.
Stock solutions (10 or 100 mM in DMSO) of compounds were serially diluted 1:2 in 11 concentrations. 25 nL/well (100 mM stock) or 50 nL/well (10 mM stock) were acoustically dispensed in assay plates with EDC acoustic dispenser. Final starting conc. in assay was 20 μM (0.2% DMSO) or 100 μM (0.1% DMSO) for test compounds.
Cells (MIA-PaCa-2; pancreatic carcinoma) were seeded in assay plates (384-well black/clear, Greiner #781091) pre-dispensed with compounds, 25 μL/well, and cultured for 72 h. The cell concentration was 750 cells/well. After 72 h culture, Celltiter Blue reagent was added (5 μL/well) and the plates were incubated for 2 h. The plates were read in an Envision fluorescence reader with Ex544 nm/Em590 nm. Results were calculated as % cytotoxicity compared to background (cells treated with 0.2% DMSO).
`O=C(OCC1CCOC1)c1ccc(NS(=O)(=O)c2cc(Cl)c(Cl)s2)cc1O` (centres unmarked) [Example 75, Tetrahydrofuran-3-ylmethyl 4-{[(4,5-dichloro-2-thienyl)sulfonyl]amino}-2-hydroxybenzoate] gave an IC50 at 72 h of 25.3 µM. For `O=C(OCCCN1CCOCC1)c1ccc(NS(=O)(=O)c2cccc(-c3cc(F)ccc3O)c2)cc1O` [Example 160, 3-Morpholin-4-ylpropyl 4-{[(5′-fluoro-2′-hydroxybiphenyl-3-yl)sulfonyl]amino}-2-hydroxybenzoate trifluoroacetate], the IC50 at 72 h was 3.6 µM. In the case of `CCC(COC(=O)c1ccc(NS(=O)(=O)c2cccc(-c3cc(F)ccc3O)c2)cc1O)OC` (centres unmarked) [Example 182, 2-Methoxybutyl 4-{[(5′-fluoro-2′-hydroxybiphenyl-3-yl)sulfonyl]amino}-2-hydroxybenzoate], the IC50 at 72 h is reported as 6.3 µM. With `CC(C)(C)OC(=O)N1CCC(OC(=O)c2ccc(NS(=O)(=O)c3c(Cl)sc(Cl)c3Cl)cc2O)C1` (centres unmarked) [Example 205, tert-Butyl 3-[(2-hydroxy-4-{[(2,4,5-trichloro-3-thienyl)sulfonyl]amino}benzoyl)oxy]pyrrolidine-1-carboxylate] the IC50 at 72 h was 17.7 µM.
